Source: PubChem BioAssay AID256 (DTP/NCI, 2004)
Where “and” joins values, the source holds several entries; their conditions need not be identical. Identical values can stand only once. Inconclusive results and toxic doses are left out. Rule for the calls: active = survival T/C of 150% or more; inactive = T/C below 125% in these data.

System: CD2F1 mice, L1210 leukemia ip, survival T/C
Experiment: NCI In Vivo Anticancer Drug Screen. Data for tumor model L1210 Leukemia (intraperitoneal) in CD2F1 (CDF1) mice
Conditions: higher = longer survival
How it was run: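 In this screen, transplantable tumors were grown in mice given either the compound or its vehicle. Results were expressed as the treated measurement relative to the control measurement.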

[1] = endpoint: mean survival time, dose: 100.0 mg/kg/injection, schedule: Q01DX001 (ip), vehicle: saline with Tween-80
[2] = endpoint: mean survival time, dose: 200.0 mg/kg/injection, schedule: Q01DX001 (ip), vehicle: saline with Tween-80
[3] = endpoint: mean survival time, dose: 400.0 mg/kg/injection, schedule: Q01DX001 (ip), vehicle: saline with Tween-80
[4] = endpoint: mean survival time, dose: 100.0 mg/kg/injection, schedule: Q01DX001 (ip), vehicle: saline
[5] = endpoint: mean survival time, dose: 200.0 mg/kg/injection, schedule: Q01DX001 (ip), vehicle: saline
[6] = endpoint: mean survival time, dose: 400.0 mg/kg/injection, schedule: Q01DX001 (ip), vehicle: saline
[7] = endpoint: mean survival time, dose: 50.0 mg/kg/injection, schedule: Q01DX009 (ip), vehicle: saline with Tween-80
[8] = endpoint: mean survival time, dose: 100.0 mg/kg/injection, schedule: Q01DX009 (ip), vehicle: saline with Tween-80
[9] = endpoint: mean survival time, dose: 200.0 mg/kg/injection, schedule: Q01DX009 (ip), vehicle: saline with Tween-80
[10] = endpoint: mean survival time, dose: 100.0 mg/kg/injection, schedule: Q04DX003 (ip), vehicle: saline with Tween-80
[11] = endpoint: mean survival time, dose: 200.0 mg/kg/injection, schedule: Q04DX003 (ip), vehicle: saline with Tween-80
[12] = endpoint: mean survival time, dose: 400.0 mg/kg/injection, schedule: Q04DX003 (ip), vehicle: saline with Tween-80

Measured: T/C

O=[C-]CC(=O)c1ccccc1.O=[C-]CC(=O)c1ccccc1.[Fe+2]
inactive: [1] 95 % of control | [2] 87 % of control | [3] 89 % of control

CCCCCCOc1ccc(N=Cc2ccc(N(C)C)cc2)cc1
inactive: endpoint: mean survival time, dose: 75.0 mg/kg/injection, schedule: Q01DX001 (ip), vehicle: other 93 % of control | endpoint: mean survival time, dose: 150.0 mg/kg/injection, schedule: Q01DX001 (ip), vehicle: other 94 % of control

FC1CC=C(S)CC1 (stereo not drawn)
inactive: endpoint: mean survival time, dose: 5.0 mg/kg/injection, schedule: Q01DX001 (ip), vehicle: saline 100 % of control | endpoint: mean survival time, dose: 10.0 mg/kg/injection, schedule: Q01DX001 (ip), vehicle: saline 106 % of control | endpoint: mean survival time, dose: 20.0 mg/kg/injection, schedule: Q01DX001 (ip), vehicle: saline 103 % of control | endpoint: mean survival time, dose: 40.0 mg/kg/injection, schedule: Q01DX001 (ip), vehicle: saline 100 % of control | endpoint: mean survival time, dose: 80.0 mg/kg/injection, schedule: Q01DX001 (ip), vehicle: saline 102 % of control

COC1=C(C)C(=O)C2=C(C1=O)C(COC(N)=O)C(=O)C1NC1CN2C (stereo not drawn)
inactive: endpoint: mean survival time, dose: 4.7 mg/kg/injection, schedule: Q01DX001 (ip), vehicle: carboxymethylcellulose (CMC) 110 % of control

O=c1cc(O)cn[nH]1
inactive: endpoint: mean survival time, dose: 25.0 mg/kg/injection, schedule: Q01DX009 (ip), vehicle: other 97 % of control | endpoint: mean survival time, dose: 50.0 mg/kg/injection, schedule: Q01DX009 (ip), vehicle: other 97 % of control | endpoint: mean survival time, dose: 100.0 mg/kg/injection, schedule: Q01DX009 (ip), vehicle: other 104 % of control | endpoint: mean survival time, dose: 200.0 mg/kg/injection, schedule: Q01DX009 (ip), vehicle: other 102 % of control | endpoint: mean survival time, dose: 400.0 mg/kg/injection, schedule: Q01DX009 (ip), vehicle: other 102 % of control

CCCSCCCC(=O)O
inactive: endpoint: mean survival time, dose: 100.0 mg/kg/injection, schedule: Q04DX003 (ip), vehicle: Klucel (hydroxypropylcellulose) (HPC) 95 % of control | endpoint: mean survival time, dose: 200.0 mg/kg/injection, schedule: Q04DX003 (ip), vehicle: Klucel (hydroxypropylcellulose) (HPC) 98 % of control | endpoint: mean survival time, dose: 400.0 mg/kg/injection, schedule: Q04DX003 (ip), vehicle: Klucel (hydroxypropylcellulose) (HPC) 103 % of control

O=[N+]([O-])c1ccccc1N/N=C/c1ccccc1
inactive: [4] 100 % of control | [5] 97 % of control | [6] 97 % of control

Cc1ccc(S(=O)(=O)NC(=O)OC23COCN2COC3)cc1
inactive: endpoint: mean survival time, dose: 12.5 mg/kg/injection, schedule: Q01DX009 (ip), vehicle: saline with Tween-80 96 % of control and 101 % of control | endpoint: mean survival time, dose: 25.0 mg/kg/injection, schedule: Q01DX009 (ip), vehicle: saline with Tween-80 96 % of control and 102 % of control | [7] 97 % of control and 101 % of control | [8] 117 % of control and 102 % of control | [9] 113 % of control and 108 % of control | endpoint: mean survival time, dose: 400.0 mg/kg/injection, schedule: Q01DX009 (ip), vehicle: saline with Tween-80 113 % of control and 105 % of control

Clc1ccc(N2CSCSC2)cc1
inactive: [7] 95 % of control | [8] 98 % of control | [9] 95 % of control

O=C(Nc1ccc2c(c1)Cc1cccc(NC(=O)C(Cl)Cl)c1-2)C(Cl)Cl
inactive: endpoint: mean survival time, dose: 12.5 mg/kg/injection, schedule: Q01DX009 (ip), vehicle: Klucel (hydroxypropylcellulose) (HPC) 90 % of control | endpoint: mean survival time, dose: 25.0 mg/kg/injection, schedule: Q01DX009 (ip), vehicle: Klucel (hydroxypropylcellulose) (HPC) 93 % of control | endpoint: mean survival time, dose: 50.0 mg/kg/injection, schedule: Q01DX009 (ip), vehicle: Klucel (hydroxypropylcellulose) (HPC) 87 % of control

CN1CC(=O)C(=N)C1=S
inactive: [1] 90 % of control | [2] 93 % of control | [3] 90 % of control

CCOC(=O)C1=C(C)NC(C)=C(C(=O)OCC)C1c1ccccc1
inactive: [7] 98 % of control | endpoint: mean survival time, dose: 50.0 mg/kg/injection, schedule: Q04DX003 (ip), vehicle: saline with Tween-80 97 % of control | [8] 102 % of control | [10] 97 % of control and 100 % of control | [9] 102 % of control | [11] 90 % of control and 96 % of control | [12] 103 % of control

[CH3][Sn]([CH3])([Cl])[S]CCN
inactive: endpoint: median survival time, dose: 3.12 mg/kg/injection, schedule: Q01DX009 (ip), vehicle: saline 107 % of control | endpoint: median survival time, dose: 6.25 mg/kg/injection, schedule: Q01DX009 (ip), vehicle: saline 101 % of control | endpoint: median survival time, dose: 12.5 mg/kg/injection, schedule: Q01DX009 (ip), vehicle: saline 109 % of control | endpoint: median survival time, dose: 25.0 mg/kg/injection, schedule: Q01DX009 (ip), vehicle: saline 111 % of control | endpoint: median survival time, dose: 50.0 mg/kg/injection, schedule: Q01DX009 (ip), vehicle: saline 114 % of control

N#C/C(=C\c1ccc(-c2ccccc2)cc1)c1ccc([N+](=O)[O-])cc1
inactive: [11] 86 % of control | [12] 94 % of control

Nc1ccc2c(c1)C(=O)OC2(C(F)(F)F)C(F)(F)F
inactive: [1] 104 % of control | [2] 101 % of control | [3] 102 % of control

O=C(O)c1ccccc1C(Br)C(Br)c1ccccc1 (stereo not drawn)
inactive: [10] 101 % of control | [11] 98 % of control | [12] 106 % of control

CC1CN(Br)C(=O)N(Br)C1=O (stereo not drawn)
inactive: endpoint: mean survival time, dose: 75.0 mg/kg/injection, schedule: Q01DX001 (ip), vehicle: saline 102 % of control | endpoint: mean survival time, dose: 150.0 mg/kg/injection, schedule: Q01DX001 (ip), vehicle: saline 100 % of control

COc1ccc(/C=C2/N=C(C)OC2=O)cc1OC(C)=O
inactive: [4] 92 % of control | [5] 93 % of control | [6] 96 % of control

CCCCCCCCCCCCCCCOc1ccc(OCCCCCCCCCCCCCC)cc1
inactive: [2] 89 % of control | [3] 88 % of control

CCC1(O)C(=O)OCc2c1cc1n(c2=O)Cc2cc3ccc(CO)cc3nc2-1 (stereo not drawn)
inactive: endpoint: median survival time, dose: 4.0 mg/kg/injection, schedule: Q04DX002 (ip), vehicle: saline with Tween-80 100 % of control | endpoint: median survival time, dose: 8.0 mg/kg/injection, schedule: Q04DX002 (ip), vehicle: saline with Tween-80 113 % of control | endpoint: median survival time, dose: 16.0 mg/kg/injection, schedule: Q04DX002 (ip), vehicle: saline with Tween-80 98 % of control | endpoint: median survival time, dose: 32.0 mg/kg/injection, schedule: Q04DX002 (ip), vehicle: saline with Tween-80 108 % of control
